This note sets out measurements from ChEMBL document CHEMBL6071189, “Exploring the 1-(4-Nitrophenyl)-3-arylprop-2-en-1-one Scaffold for the Selective Inhibition of Monoamine Oxidase B” (ACS Med Chem Lett, 2024).

The structures appear in SMILES notation. pIC50: −log10 of the molar value.

The species entered for the first assay is Homo sapiens. Briefly: Selectivity index, ratio of IC50 for inhibition of recombinant human MAO-A to IC50 for inhibition of recombinant human MAO-B.
As for `COc1ccc(/C=C/C(=O)c2ccc([N+](=O)[O-])cc2)cc1`, the Ratio IC50 came to 290.
On to `O=C(/C=C/c1ccc(Cl)cc1)c1ccc([N+](=O)[O-])cc1`, for which the Ratio IC50 worked out at 5200.
The same measure, in the same setting: next, `O=C(/C=C/c1ccc(Cl)c(Cl)c1)c1ccc([N+](=O)[O-])cc1`: 27000; `O=C(/C=C/c1ccc2ccccc2c1)c1ccc([N+](=O)[O-])cc1`: 620; `O=C(/C=C/c1ccc(F)cc1)c1ccc([N+](=O)[O-])cc1`: 160.
As to `Cc1ccc(/C=C/C(=O)c2ccc([N+](=O)[O-])cc2)cc1`, the Ratio IC50 turned out to be 210.
Turning to `Cc1ccccc1/C=C/C(=O)c1ccc([N+](=O)[O-])cc1`, the Ratio IC50 came to 740.

The next assay concerns the target T1, Amine oxidase [flavin-containing] B (Homo sapiens, UniProt P27338).
T1 sequence (P27338 whole entry): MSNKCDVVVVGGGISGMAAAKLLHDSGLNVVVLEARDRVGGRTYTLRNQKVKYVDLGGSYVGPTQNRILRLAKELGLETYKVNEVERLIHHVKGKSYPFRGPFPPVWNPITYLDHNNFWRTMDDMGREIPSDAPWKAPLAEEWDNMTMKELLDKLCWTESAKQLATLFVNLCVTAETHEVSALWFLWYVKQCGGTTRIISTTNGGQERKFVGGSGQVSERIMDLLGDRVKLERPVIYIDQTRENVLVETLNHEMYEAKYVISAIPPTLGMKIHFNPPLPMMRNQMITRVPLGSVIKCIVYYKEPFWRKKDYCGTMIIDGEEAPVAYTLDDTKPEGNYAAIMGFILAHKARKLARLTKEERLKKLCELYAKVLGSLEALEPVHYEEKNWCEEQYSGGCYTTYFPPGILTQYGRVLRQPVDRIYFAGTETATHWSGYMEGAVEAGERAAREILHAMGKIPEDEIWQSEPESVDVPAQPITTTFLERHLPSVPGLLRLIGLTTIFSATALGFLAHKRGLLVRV
Briefly: Inhibition of recombinant human MAO-B using tyramine hydrochloride as substrate preincubated for 5 mins followed by substrate addition and measured after 5 mins in presence of horse radish peroxidase by Ampliflu Red based fluorescence microplate reader.
Take `COc1ccc(/C=C/C(=O)c2ccc([N+](=O)[O-])cc2)cc1`: the negative-log IC50 (pIC50) is 7.03.
In the case of `O=C(/C=C/c1ccc(Cl)cc1)c1ccc([N+](=O)[O-])cc1`, the pIC50 was 8.00.
On the same count and under the same terms, next, `O=C(/C=C/c1ccc(Cl)c(Cl)c1)c1ccc([N+](=O)[O-])cc1`: 8.66.
Take `O=C(/C=C/c1ccc2ccccc2c1)c1ccc([N+](=O)[O-])cc1`: the pIC50 is 7.68.
Take `O=C(/C=C/c1ccc(F)cc1)c1ccc([N+](=O)[O-])cc1`: the negative-log IC50 (pIC50) was 7.32.
Still for that read-out and setting: next, `Cc1ccc(/C=C/C(=O)c2ccc([N+](=O)[O-])cc2)cc1`: 7.89.
Still for that read-out and setting: next, `Cc1ccccc1/C=C/C(=O)c1ccc([N+](=O)[O-])cc1`: 6.92.

The target of the next assay is T2, Amine oxidase [flavin-containing] A (Homo sapiens, UniProt P21397).
T2 sequence (P21397 whole entry): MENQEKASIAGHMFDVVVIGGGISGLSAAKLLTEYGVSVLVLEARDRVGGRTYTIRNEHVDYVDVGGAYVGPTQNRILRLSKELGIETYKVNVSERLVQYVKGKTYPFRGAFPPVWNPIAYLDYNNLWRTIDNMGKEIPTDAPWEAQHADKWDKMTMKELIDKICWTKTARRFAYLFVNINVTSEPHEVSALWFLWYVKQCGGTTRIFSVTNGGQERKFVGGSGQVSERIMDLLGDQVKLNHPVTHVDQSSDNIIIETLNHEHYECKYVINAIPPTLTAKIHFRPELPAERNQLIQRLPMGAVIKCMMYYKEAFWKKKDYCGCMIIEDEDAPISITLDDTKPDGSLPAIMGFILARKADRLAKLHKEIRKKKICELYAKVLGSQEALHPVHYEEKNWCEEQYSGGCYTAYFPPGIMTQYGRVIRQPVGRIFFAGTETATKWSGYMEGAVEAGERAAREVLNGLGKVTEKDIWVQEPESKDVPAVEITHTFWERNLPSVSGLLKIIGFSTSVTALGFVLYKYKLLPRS
The assay can be described thus: Inhibition of recombinant human MAO-A using tyramine hydrochloride as substrate preincubated for 5 mins followed by substrate addition and measured after 5 mins in presence of horse radish peroxidase by Ampliflu Red based fluorescence microplate reader.
Turning to `COc1ccc(/C=C/C(=O)c2ccc([N+](=O)[O-])cc2)cc1`, the pIC50 was 4.57.
Consider `O=C(/C=C/c1ccc(Cl)cc1)c1ccc([N+](=O)[O-])cc1`, for which the pIC50 is 4.28.
For the compound `O=C(/C=C/c1ccc(Cl)c(Cl)c1)c1ccc([N+](=O)[O-])cc1`, the pIC50 was 4.23.
For the compound `O=C(/C=C/c1ccc2ccccc2c1)c1ccc([N+](=O)[O-])cc1`, the pIC50 is 4.89.
Take `O=C(/C=C/c1ccc(F)cc1)c1ccc([N+](=O)[O-])cc1`: the pIC50 was 5.11.
In the case of `Cc1ccc(/C=C/C(=O)c2ccc([N+](=O)[O-])cc2)cc1`, the negative logarithm of the IC50 (pIC50) is 5.57.
As to `Cc1ccccc1/C=C/C(=O)c1ccc([N+](=O)[O-])cc1`, the negative-log IC50 (pIC50) is 4.05.
